Measurements published in patent US10208019B2, “GLP-1 receptor agonists and uses thereof” (Pfizer Inc., priority 2016, dated 2019).
Where two headings read alike, the source gives them in different places.

Experiments:
human GLP-1R [1] = biological target: human GLP-1R (Homo sapiens (Human), UniProt P43220, L260F); assay: CHO GLP-1R Clone C6—Assay 2: HTRF cAMP cell-based functional agonist assay (low GLP-1R density); conditions: for EC50: CHO GLP-1R Clone C6, cAMP HTRF, geometric mean; for Emax: CHO GLP-1R Clone C6, relative to saturating concentration of full agonist GLP-1 (1 μM), arithmetic mean, read-out: Assay 2 Emax (%)
human GLP-1R [2] = biological target: human GLP-1R (Homo sapiens, UniProt P43220, G168S); assay: CHO GLP-1R Clone H6—Assay 1: HTRF cAMP cell-based functional agonist assay (high GLP-1R density); conditions: for Assay 1 Emax (%): CHO GLP-1R Clone H6; for Assay 1 Emax (%) / Emax: relative to saturating concentration of full agonist GLP-1 (1 μM), arithmetic mean; for EC50: CHO GLP-1R Clone H6, cAMP HTRF, geometric mean; for Emax: read-out: Assay 1 Emax (%), CHO GLP-1R Clone H6
Sequence of human GLP-1R (Homo sapiens, UniProt P43220, G168S) (P43220 24-463 G168S limits assumed): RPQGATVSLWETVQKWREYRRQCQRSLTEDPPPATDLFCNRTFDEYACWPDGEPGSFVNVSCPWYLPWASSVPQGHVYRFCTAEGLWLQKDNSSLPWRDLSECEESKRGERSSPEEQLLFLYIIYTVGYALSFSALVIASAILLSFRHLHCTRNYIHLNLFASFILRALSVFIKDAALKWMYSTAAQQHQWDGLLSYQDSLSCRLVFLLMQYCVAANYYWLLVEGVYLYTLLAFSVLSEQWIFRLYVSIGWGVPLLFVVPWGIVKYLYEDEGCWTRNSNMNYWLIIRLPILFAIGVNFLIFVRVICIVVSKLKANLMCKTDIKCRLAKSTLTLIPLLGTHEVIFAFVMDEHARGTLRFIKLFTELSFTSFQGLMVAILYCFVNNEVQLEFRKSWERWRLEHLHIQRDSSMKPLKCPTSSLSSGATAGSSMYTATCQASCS

Sequence of human GLP-1R (Homo sapiens (Human), UniProt P43220, L260F) (P43220 24-463 L260F): as the sequence (P43220 24-463 G168S limits assumed) above, with S145G, L237F counted along it

Structure (SMILES) | EC50 (human GLP-1R [1]) [nM] | Emax (human GLP-1R [1]) [%] | Assay 1 Emax (%) (human GLP-1R [2]) | EC50 (human GLP-1R [2]; read-out: Assay 1 EC50) [nM] | Emax (human GLP-1R [2]) [%] | EC50 (human GLP-1R [2]; Assay 1 EC50 (nM)) [nM]
COCCn1c(CN2CCC(c3cccc(OCc4ccc(Cl)cc4F)n3)CC2C)nc2ccc(C(=O)O)cc21 (single isomer, unassigned) [Example 13A-03, cis 2-{[4-{6-[(4-Chloro-2-fluorobenzyl)oxy]pyridin-2-yl}-2-methylpiperidin-1-yl]methyl}-1-(2-methoxyethyl)-1H-benzimidazole-6-carboxylic acid] | 120 | 80 | 66 | 5.2 |  | 
CCn1cnnc1Cn1c(CN2CCN(c3cccc(OCc4ccc(Cl)cc4F)n3)C[C@@H]2C)nc2ccc(C(=O)O)cc21 [Example 10A-21] | 400 | 100 |  | 18 | 88 | 
O=C(O)c1ccc2nc(CN3CCC(c4cccc(OCc5ccc(Cl)cc5F)n4)CC3)n(Cc3cocn3)c2c1 [Example 10A-41, 2-[(4-{6-[(4-chloro-2-fluorobenzyl)oxy]pyridin-2-yl}piperidin-1-yl)methyl]-1-(1,3-oxazol-4-ylmethyl)-1H-benzimidazole-6-carboxylic acid] | 140 | 82 |  | 12 | 75 | 
CO[C@@H]1CCC[C@H]1n1c(CN2CCC(c3cccc(OCc4ccc(Cl)cc4F)n3)CC2)nc2ccc(C(=O)O)cc21 [Example 1A-27, 2-[(4-{6-[(4-chloro-2-fluorobenzyl)oxy]pyridin-2-yl}piperidin-1-yl)methyl]-1-[(1R,2R)-2-methoxycyclopentyl]-1H-benzimidazole-6-carboxylic acid] | 1400 | 47 |  | 190 | 91 | 
COCCn1c(CN2CCN(c3nc(OCc4ccc(Cl)cc4F)ccc3F)CC2)nc2ccc(C(=O)O)cc21 [Example 1A-05, 2-[(4-{6-[(4-chloro-2-fluorobenzyl)oxy]-3-fluoropyridin-2-yl}piperazin-1-yl)methyl]-1-(2-methoxyethyl)-1H-benzimidazole-6-carboxylic acid] |  | 67 |  |  | 75 | 
O=C(O)c1ccc2nc(CN3CCC(c4cccc(OCc5ccc(Cl)cc5F)n4)CC3)n(C[C@H]3CCCO3)c2c1 [Example 11A-68, 2-[(4-{6-[(4-chloro-2-fluorobenzyl)oxy]pyridin-2-yl}piperidin-1-yl)methyl]-1-[(2R)-tetrahydrofuran-2-ylmethyl]-1H-benzimidazole-6-carboxylic acid] | 2000 | 82 |  | 63 | 78 | 
C[C@H]1CN(c2cccc(OCc3ccc(Cl)cc3F)n2)CCN1Cc1nc2ccc(C(=O)O)cc2n1Cc1ncco1 [Example 10A-18, 2-{[(2S)-4-{6-[(4-chloro-2-fluorobenzyl)oxy]pyridin-2-yl}-2-methylpiperazin-1-yl]methyl}-1-(1,3-oxazol-2-ylmethyl)-1H-benzimidazole-6-carboxylic acid] | 33 | 78 |  | 1.6 | 78 | 
Cn1cnnc1Cn1c(CN2CCC(c3cccc(OCc4ccc(C#N)cc4F)n3)CC2)nc2ccc(C(=O)O)cc21 [Example 1A-20, 2-[(4-{6-[(4-cyano-2-fluorobenzyl)oxy]pyridin-2-yl}piperidin-1-yl)methyl]-1-[(4-methyl-4H-1,2,4-triazol-3-yl)methyl]-1H-benzimidazole-6-carboxylic acid] | 880 | 90 |  | 44 | 81 | 
C[C@H]1CN(c2cccc(OCc3ccc(Cl)cc3F)n2)CCN1Cc1nc2ccc(C(=O)O)cc2n1Cc1cnnn1C [Example 10A-22] | 100 | 79 |  | 5.7 | 67 | 
CCn1nncc1Cn1c(CN2CCC(c3cccc(OCc4ccc(C#N)cc4F)n3)CC2)nc2ccc(C(=O)O)cc21 [Example 10A-69, 2-[(4-{6-[(4-cyano-2-fluorobenzyl)oxy]pyridin-2-yl}piperidin-1-yl)methyl]-1-[(1-ethyl-1H-1,2,3-triazol-5-yl)methyl]-1H-benzimidazole-6-carboxylic acid] | 20 | 87 |  | 2 | 84 | 
C[C@H]1CN(c2cccc(OCc3ccc(C#N)cc3)n2)CCN1Cc1nc2ccc(C(=O)O)cc2n1CC1CCCO1 (single isomer, unassigned; diastereomer 1) [Example 14A-07] | 55 |  | 63 | 1.9 |  | 
Cn1cnnc1Cn1c(CN2CCC(c3cccc(OCc4ccc(Cl)cc4F)n3)CC2)nc2ccc(C(=O)O)cc21 [Example 11A-71, 2-[(4-{6-[(4-chloro-2-fluorobenzyl)oxy]pyridin-2-yl}piperidin-1-yl)methyl]-1-[(4-methyl-4H-1,2,4-triazol-3-yl)methyl]-1H-benzimidazole-6-carboxylic acid] | 570 | 93 |  | 30 | 73 | 
COC1(Cn2c(CN3CCC(c4cccc(OCc5ccc(Cl)cc5F)n4)CC3)nc3ccc(C(=O)O)cc32)CCC1 [Example 10A-26, 2-[(4-{6-[(4-chloro-2-fluorobenzyl)oxy]pyridin-2-yl}piperidin-1-yl)methyl]-1-[(1-methoxycyclobutyl)methyl]-1H-benzimidazole-6-carboxylic acid] | 190 | 80 |  | 7 | 59 | 
COCCn1c(CN2CC[C@@H](c3cccc(OCc4ccc(Cl)cc4F)n3)[C@H](O)C2)nc2ccc(C(=O)O)cc21 (racemic) [Example 1A-23, rac-2-{[(3S,4S)-4-{6-[(4-chloro-2-fluorobenzyl)oxy]pyridin-2-yl}-3-hydroxypiperidin-1-yl]methyl}-1-(2-methoxyethyl)-1H-benzimidazole-6-carboxylic acid] | 1000 | 98 |  |  | 83 | 50
O=C(O)c1ccc2nc(CN3CCC(c4cccc(OCc5ccc(Cl)cc5F)n4)CC3)n(C3CCOC3)c2c1 (stereo not shown) [Example 11A-26, 2-[(4-{6-[(4-chloro-2-fluorobenzyl)oxy]pyridin-2-yl}piperidin-1-yl)methyl]-1-(tetrahydrofuran-3-yl)-1H-benzimidazole-6-carboxylic acid] | 1100 | 79 |  | 36 | 73 | 
N#Cc1ccc(COc2cccc(N3CCN(Cc4nc5ccc(C(=O)O)cc5n4Cc4ncco4)CC3)n2)c(F)c1 [Example 10A-34, 2-[(4-{6-[(4-cyano-2-fluorobenzyl)oxy]pyridin-2-yl}piperazin-1-yl)methyl]-1-(1,3-oxazol-2-ylmethyl)-1H-benzimidazole-6-carboxylic acid] | 29 | 95 |  | 1.5 | 80 | 
CN1CCC[C@@H]1Cn1c(CN2CCC(c3cccc(OCc4ccc(Cl)cc4F)n3)CC2)nc2ccc(C(=O)O)cc21 [Example 11A-34, 2-[(4-{6-[(4-chloro-2-fluorobenzyl)oxy]pyridin-2-yl}piperidin-1-yl)methyl]-1-{[(2R)-1-methylpyrrolidin-2-yl]methyl}-1H-benzimidazole-6-carboxylic acid] | 3500 | 95 |  | 110 | 70 | 
N#Cc1ccc(COc2cccc(C3CCN(Cc4nc5ccc(C(=O)O)cc5n4C[C@@H]4CCO4)CC3)n2)cc1 [Example 10A-78, 2-[(4-{6-[(4-cyanobenzyl)oxy]pyridin-2-yl}piperidin-1-yl)methyl]-1-[(2S)-oxetan-2-ylmethyl]-1H-benzimidazole-6-carboxylic acid] | 28 | 88 |  | 1.6 | 83 | 
COCCn1c(CN2CC[C@@H](c3cccc(OCc4ccc(Cl)cc4F)n3)[C@@H](C)C2)nc2ccc(C(=O)O)cc21 (racemic) [Example 1A-25, rac-2-{[(3R,4R)-4-{6-[(4-chloro-2-fluorobenzyl)oxy]pyridin-2-yl}-3-methylpiperidin-1-yl]methyl}-1-(2-methoxyethyl)-1H-benzimidazole-6-carboxylic acid] | 1000 | 84 |  |  | 65 | 45
Cn1cncc1Cn1c(CN2CCC(c3cccc(OCc4ccc(F)cc4F)n3)CC2)nc2ccc(C(=O)O)cc21 [Example 1A-17, 2-[(4-{6-[(2,4-difluorobenzyl)oxy]pyridin-2-yl}piperidin-1-yl)methyl]-1-[(1-methyl-1H-imidazol-5-yl)methyl]-1H-benzimidazole-6-carboxylic acid] | 45 | 95 |  | 2.4 | 87 | 
CCn1cncc1Cn1c(CN2CCN(c3cccc(OCc4ccc(Cl)cc4F)n3)C[C@@H]2C)nc2ccc(C(=O)O)cc21 [Example 10A-67, 2-{[(2S)-4-{6-[(4-chloro-2-fluorobenzyl)oxy]pyridin-2-yl}-2-methylpiperazin-1-yl]methyl}-1-[(1-ethyl-1H-imidazol-5-yl)methyl]-1H-benzimidazole-6-carboxylic acid] | 6.8 | 93 |  | 0.59 | 83 | 
O=C(O)c1ccc2nc(CN3CCN(c4cccc(OCc5ccc(Cl)cc5F)n4)CC3)n(C[C@@H]3CCO3)c2n1 [Example 10A-74, 2-[(4-{6-[(4-chloro-2-fluorobenzyl)oxy]pyridin-2-yl}piperazin-1-yl)methyl]-3-[(2S)-oxetan-2-ylmethyl]-3H-imidazo[4,5-b]pyridine-5-carboxylic acid] | 9.7 | 100 |  | 0.9 | 94 | 
